Patent US20190077774A1, “PEROXISOME PROLIFERATOR-ACTIVATED RECEPTOR AGONISTS” (City of Hope, priority 2017, published 2019)

Tested on: PPARα target genes in the liver
Test: Liver gene expression of PPARα targets in treated mice (RT-qPCR)
Type: in vivo
Text: FIG. 6. […] Data in same order as triglyceride suppression (FIG. 5). apo CIII and LPL expression inversely correlate with triglyceride suppression for many, but not all, compounds. ACOX1 and Cyp4A3 expression correlate with triglyceride suppression for many, but not all, compounds.
The following oligonucleotide primers were used to amplify insertion sequences: for PPARα, FW-5′-[…]-3′ (SEQ ID NO:1) and Rev-5′-[…]-3′ (SEQ ID NO:2); for RXRα, FW-5′ […]-3′ (SEQ ID NO:3) and Rev-5′-[…]-3′ (SEQ ID NO:4). It has been well established that PPARα agonists fibrates reduce plasma triglycerides largely by inducing hepatic PPARα-mediated transcription of key proteins in hepatic long-chain fatty acid […], such as CPT1 (carnitine palmitoyltransferase-1). DY121 promoted the expression of PPARα, CPT1, and LPL involved in free fatty acid β-oxidation. The mRNA expressions of the PPARα-regulated genes CPT-Ia and ACADM were measured by real-time quantitative-PCR (RT-qPCR). […] A structural specificity of DY121 may be responsible for this regulation. PPARα is predominantly expressed in liver. PPARα modulates fatty acid catabolism in the liver. We next measured the mRNA expression of PPARα target genes in the liver. PPARα agonists exert their actions and attributed to the activation of PPARα which in turn effects an increase in LPL (lipoprotein lipase) gene expression and transrepression of apoC-III (apolipoprotein C-III). Activation of PPARα by its modulators can increase PPARα levels and activate PPARα pathways, leading to increased fatty-acid oxidation and reduction of oxidative stress. DY121 and its analogs induced the expression of PPARα-regulated genes involved in lipid, glucose, and cholesterol metabolism, such as ACOX1 (acyl-CoA oxidase) and Cyp4A3 (cytochrome P450 gene subfamily). Members of the CYP4A gene subfamily catalyze the oxygenation of biologically important fatty acids.
Next, we would like to investigate the therapeutic potential of DY121 to see if it could be candidate for treating NAFLD/NASH. Note that the pathogenesis of NASH has not yet been fully elucidated so far; however, the ‘two-hit’ theory is widely accepted. The first hit is the accumulation of fatty acids in the liver to cause steatosis. […] The newly produced PPARα agonist DY121 and its analogs, as well as WY100=WY14643 and GW3 (GW7647), were evaluated in C57Bl/6J female mice for their ability to alter serum triglyceride, liver gene expression, and glucose. Fibric acid derivatives (100 mg/kg/day) was used as a control, WY100 (WY14, 643, 100 mg/kg/day), GW3 (GW7647-positive control, 3 mg/kg/day), DY121 (˜3 mg/kg/day), respectively. […]

With `COc1ccc(Cn2c(CCCc3ccc(OC(C)(C)C(=O)O)cc3)nn(Cc3ccc(C)cc3)c2=O)cc1` [10a, 2-(4-{3-[4-(4-Methoxy-benzyl)-1-(4-methyl-benzyl)-5-oxo-4,5-dihydro-1H[1,2,4]triazol-3-yl]-propyl}-phenoxy)-2-methyl-propionic acid] the “expression of PPARα, CPT1, and LPL” value (RT-qPCR) was “promoted”, the “expression of PPARα-regulated genes such as ACOX1 and Cyp4A3” value (RT-qPCR) was “induced” and the “liver CPT-Ia expression” value (chronic (>3 d) treatment (FIG. 17)) was “upregulated”. For the same molecule, the LPL expression (liver, chronic treatment (FIG. 11)) was “enhanced expression of LPL”, the ACOX1 expression (liver, chronic treatment (FIG. 12)) was “enhanced by PPARα activation, most consistently” and the Cyp4A3 expression (liver, chronic treatment (FIG. 13)) was “consistently”. For the same molecule, the apoCIII expression (liver, chronic treatment up to 7 days (FIG. 11)) was “significantly suppressed expression of apoCIII at each time point”, the ACADM expression (time course (FIG. 18)) was “upregulates” and the “CYP4A3 mRNA in the liver” value (wild-type and PPARα knockout mice) was “enhanced levels of CYP4A3 mRNA in the liver of wild-type but not PPARα knockout mice”.
